Measurements: ChEMBL document CHEMBL3885861, “Open TG-GATES”

Organism: Rattus norvegicus
Assay: Open TG-GATES - Regimen: Daily Repeat
Type: toxicity, organism-based, Sprague-Dawley
Parameters: regimen Daily Repeat, gender Male, age 6 weeks
Conditions: in vivo, po, 100 mg/kg, route gavage, dose level Middle; for APTT / Bas / Eos / Fbg / Hb / Ht / Lym / MCH / MCHC / MCV / Mono / Neu / PT / Plat / RBC / Ret / WBC: tissue Blood; for KIDNEY_L / KIDNEY_R / KIDNEY_TOTAL: tissue Kidney; for LIVER: tissue Liver; for A/G / ALP / ALT / AST / BUN / CRE / Ca / Cl / DBIL / GLC / IP / K / LDH / Na / PL / RALB / TBIL / TC / TG / TP / gamma-GTP: tissue Plasma

## Brc1ccccc1 [BROMOBENZENE]
72 h, time 3 day
  TERMINAL_BW: 207.5 g
  APTT: 14.7 s
  Bas: 0.2%
  Eos: 1%
  Fbg: 300.2 mg/dL
  Hb: 12.9 g/dL
  Ht: 38.4%
  Lym: 74.2%
  MCH: 20.5 pg
  MCHC: 33.5%
  MCV: 61.1 fL
  Mono: 3.5%
  Neu: 20.5%
  PT: 11.8 s
  Plat: 118.8 x10_4/uL
  RBC: 629 x10_4/ul
  Ret: 6.2%
  WBC: 95.6 x10_2/uL
  KIDNEY_L: 0.9 g
  KIDNEY_R: 0.9 g
  KIDNEY_TOTAL: 1.8 g
  LIVER: 11.6 g
  A/G: 0.9
  ALP: 1811.5 IU/L
  ALT: 56.5 IU/L
  AST: 78.5 IU/L
  BUN: 13 mg/dL
  CRE: 0.2 mg/dL
  Ca: 10.4 mg/dL
  Cl: 106 meq/L
  DBIL: 0.015 mg/dL
  GLC: 179.8 mg/dL
  IP: 6.4 mg/dL
  K: 4.1 meq/L
  LDH: 101.8 IU/L
  Na: 142.2 meq/L
  PL: 166.8 mg/dL
  RALB: 2.7 g/dL
  TBIL: 0.0575 mg/dL
  TC: 88 mg/dL
  TG: 66 mg/dL
  TP: 5.7 g/dL
  gamma-GTP: 1.2 IU/L
[…], time 7 day
  TERMINAL_BW: 245.7 g
  APTT: 13.4 s
  Bas: 0%
  Eos: 1%
  Fbg: 317.4 mg/dL
  Hb: 13.3 g/dL
  Ht: 39.3%
  Lym: 75.8%
  MCH: 21.2 pg
  MCHC: 33.9%
  MCV: 62.5 fL
  Mono: 3%
  Neu: 19.8%
  PT: 12.2 s
  Plat: 112.7 x10_4/uL
  RBC: 629 x10_4/ul
  Ret: 6.9%
  WBC: 98.3 x10_2/uL
  KIDNEY_L: 1.1 g
  KIDNEY_R: 1.1 g
  KIDNEY_TOTAL: 2.2 g
  LIVER: 12.8 g
  A/G: 0.8
  ALP: 1614.4 IU/L
  ALT: 43.4 IU/L
  AST: 65 IU/L
  BUN: 14.8 mg/dL
  CRE: 0.2 mg/dL
  Ca: 11.1 mg/dL
  Cl: 105.2 meq/L
  DBIL: 0.014 mg/dL
  GLC: 193.2 mg/dL
  IP: 7.1 mg/dL
  K: 4 meq/L
  LDH: 99.8 IU/L
  Na: 143 meq/L
  PL: 149 mg/dL
  RALB: 2.7 g/dL
  TBIL: 0.048 mg/dL
  TC: 71.6 mg/dL
  TG: 84.8 mg/dL
  TP: 5.9 g/dL
  gamma-GTP: 1 IU/L
[…], time 14 day
  TERMINAL_BW: 288.5 g
  APTT: 16.8 s
  Bas: 0%
  Eos: 1%
  Fbg: 326.4 mg/dL
  Hb: 14.2 g/dL
  Ht: 40.9%
  Lym: 78%
  MCH: 20.7 pg
  MCHC: 34.7%
  MCV: 59.8 fL
  Mono: 2.8%
  Neu: 18.2%
  PT: 11.9 s
  Plat: 113.2 x10_4/uL
  RBC: 685.4 x10_4/ul
  Ret: 4.6%
  WBC: 74.5 x10_2/uL
  KIDNEY_L: 1.1 g
  KIDNEY_R: 1.1 g
  KIDNEY_TOTAL: 2.2 g
  LIVER: 13.7 g
  A/G: 0.8
  ALP: 1557.8 IU/L
  ALT: 39.6 IU/L
  AST: 63.4 IU/L
  BUN: 14.6 mg/dL
  CRE: 0.2 mg/dL
  Ca: 10.9 mg/dL
  Cl: 107 meq/L
  DBIL: 0.008 mg/dL
  GLC: 185.6 mg/dL
  IP: 5.9 mg/dL
  K: 4 meq/L
  LDH: 56.6 IU/L
  Na: 143.6 meq/L
  PL: 150.4 mg/dL
  RALB: 2.8 g/dL
  TBIL: 0.046 mg/dL
  TC: 71.2 mg/dL
  TG: 100.6 mg/dL
  TP: 6.1 g/dL
  gamma-GTP: 1 IU/L
[…], time 28 day
  TERMINAL_BW: 381.1 g
  APTT: 17.1 s
  Bas: 0%
  Eos: 1%
  Fbg: 304.8 mg/dL
  Hb: 14.6 g/dL
  Ht: 41.5%
  Lym: 73.8%
  MCH: 19.3 pg
  MCHC: 35.1%
  MCV: 55.1 fL
  Mono: 3%
  Neu: 21.2%
  PT: 12.9 s
  Plat: 109.2 x10_4/uL
  RBC: 754.6 x10_4/ul
  Ret: 2.6%
  WBC: 103.2 x10_2/uL
  KIDNEY_L: 1.4 g
  KIDNEY_R: 1.4 g
  KIDNEY_TOTAL: 2.7 g
  LIVER: 17 g
  A/G: 0.8
  ALP: 1105.2 IU/L
  ALT: 40.8 IU/L
  AST: 61.8 IU/L
  BUN: 15.4 mg/dL
  CRE: 0.3 mg/dL
  Ca: 10.6 mg/dL
  Cl: 105.6 meq/L
  DBIL: 0.016 mg/dL
  GLC: 198.8 mg/dL
  IP: 5.8 mg/dL
  K: 3.9 meq/L
  LDH: 86.2 IU/L
  Na: 142.4 meq/L
  PL: 140.8 mg/dL
  RALB: 2.8 g/dL
  TBIL: 0.04 mg/dL
  TC: 72.8 mg/dL
  TG: 108.8 mg/dL
  TP: 6.3 g/dL
  gamma-GTP: 1 IU/L
